Measurements: BindingDB's records for doi:10.1021/acsmedchemlett.5b00050 (Genomics Institute of The Novartis Research Foundation, 2015)

What was measured:
[1] = Inhibition of Tel-fused FMS (unknown origin) expressed in mouse BA/F3 cells after 48 hrs by luciferase reporter gene assay in absence of recombinant mouse IL3
[2] = Inhibition of Tel-fused FGR (unknown origin) expressed in mouse BA/F3 cells after 48 hrs by luciferase reporter gene assay in absence of recombinant mouse IL3
[3] = Inhibition of Tel-fused ROS (unknown origin) expressed in mouse BA/F3 cells after 48 hrs by luciferase reporter gene assay in absence of recombinant mouse IL3
[4] = Inhibition of Tel-fused BMX (unknown origin) expressed in mouse BA/F3 cells after 48 hrs by luciferase reporter gene assay in absence of recombinant mouse IL3
[5] = Inhibition of Tel-fused KIT (unknown origin) expressed in mouse BA/F3 cells after 48 hrs by luciferase reporter gene assay in absence of recombinant mouse IL3
[6] = Inhibition of Tel-fused TRKB (unknown origin) overexpressed in mouse BA/F3 cells assessed as inhibition of cell proliferation after 48 hrs by luciferase reporter gene assay in absence of recombinant mouse IL3
[7] = Inhibition of Tel-fused TRKC (unknown origin) overexpressed in mouse BA/F3 cells assessed as inhibition of cell proliferation after 48 hrs by luciferase reporter gene assay in absence of recombinant mouse IL3
[8] = Inhibition of Tel-fused KDR (unknown origin) expressed in mouse BA/F3 cells after 48 hrs by luciferase reporter gene assay in absence of recombinant mouse IL3
[9] = Inhibition of Tel-fused SYK (unknown origin) expressed in mouse BA/F3 cells after 48 hrs by luciferase reporter gene assay in absence of recombinant mouse IL3
[10] = Inhibition of BCR-fused ABL (unknown origin) expressed in mouse BA/F3 cells after 48 hrs by luciferase reporter gene assay in absence of recombinant mouse IL3
[11] = Inhibition of Tel-fused RON (unknown origin) expressed in mouse BA/F3 cells after 48 hrs by luciferase reporter gene assay in absence of recombinant mouse IL3
[12] = Inhibition of Tel-fused ALK (unknown origin) expressed in mouse BA/F3 cells after 48 hrs by luciferase reporter gene assay in absence of recombinant mouse IL3
[13] = Inhibition of Tel-fused MER (unknown origin) expressed in mouse BA/F3 cells after 48 hrs by luciferase reporter gene assay in absence of recombinant mouse IL3
[14] = Inhibition of Tel-fused MET (unknown origin) expressed in mouse BA/F3 cells after 48 hrs by luciferase reporter gene assay in absence of recombinant mouse IL3
[15] = Inhibition of Tel-fused LCK (unknown origin) expressed in mouse BA/F3 cells after 48 hrs by luciferase reporter gene assay in absence of recombinant mouse IL3
[16] = Inhibition of Tel-fused INSR (unknown origin) expressed in mouse BA/F3 cells after 48 hrs by luciferase reporter gene assay in absence of recombinant mouse IL3
[17] = Inhibition of Tel-fused FLT3 (unknown origin) expressed in mouse BA/F3 cells after 48 hrs by luciferase reporter gene assay in absence of recombinant mouse IL3
[18] = Inhibition of Tel-fused TIE1 (unknown origin) expressed in mouse BA/F3 cells after 48 hrs by luciferase reporter gene assay in absence of recombinant mouse IL3
[19] = Inhibition of Tel-fused FLT1 (unknown origin) expressed in mouse BA/F3 cells after 48 hrs by luciferase reporter gene assay in absence of recombinant mouse IL3
[20] = Inhibition of Tel-fused BRAF (unknown origin) expressed in mouse BA/F3 cells after 48 hrs by luciferase reporter gene assay in absence of recombinant mouse IL3
[21] = Inhibition of Tel-fused IGF1R (unknown origin) expressed in mouse BA/F3 cells after 48 hrs by luciferase reporter gene assay in absence of recombinant mouse IL3
[22] = Inhibition of Tel-fused FGFR3 (unknown origin) expressed in mouse BA/F3 cells after 48 hrs by luciferase reporter gene assay in absence of recombinant mouse IL3
[23] = Inhibition of Tel-fused FGFR4 (unknown origin) expressed in mouse BA/F3 cells after 48 hrs by luciferase reporter gene assay in absence of recombinant mouse IL3
[24] = Inhibition of Tel-fused ZAP70 (unknown origin) expressed in mouse BA/F3 cells after 48 hrs by luciferase reporter gene assay in absence of recombinant mouse IL3
[25] = Inhibition of Tel-fused PDGFRbeta (unknown origin) expressed in mouse BA/F3 cells after 48 hrs by luciferase reporter gene assay in absence of recombinant mouse IL3
[26] = Inhibition of Tel-fused TRKA (unknown origin) overexpressed in mouse BA/F3 cells assessed as inhibition of cell proliferation after 48 hrs by luciferase reporter gene assay in absence of recombinant mouse IL3
[27] = Inhibition of NGF-activated full length TRKA (unknown origin) expressed in mouse BA/F3 cells assessed as inhibition of cell proliferation
[28] = Inhibition of NMP-fused ALK (unknown origin) expressed in mouse BA/F3 cells after 48 hrs by luciferase reporter gene assay in absence of recombinant mouse IL3
[29] = Inhibition of Tel-fused SRC (unknown origin) expressed in mouse BA/F3 cells after 48 hrs by luciferase reporter gene assay in absence of recombinant mouse IL3
[30] = Inhibition of Tel-fused LYN (unknown origin) expressed in mouse BA/F3 cells after 48 hrs by luciferase reporter gene assay in absence of recombinant mouse IL3
[31] = Inhibition of Tel-fused TYRO3 (unknown origin) expressed in mouse BA/F3 cells after 48 hrs by luciferase reporter gene assay in absence of recombinant mouse IL3
[32] = Inhibition of TPM3-fused TRKA (unknown origin) expressed in human KM12 cells assessed as inhibition of cell proliferation after 48 hrs by luciferase reporter gene assay
[33] = Inhibition of Tel-fused RET (unknown origin) expressed in mouse BA/F3 cells after 48 hrs by luciferase reporter gene assay in absence of recombinant mouse IL3

Structure (SMILES): Fc1cccc([C@H]2CCCN2c2ccc3ncc(-c4ccccn4)n3n2)c1
- IC50 [1]: > 10 µM
- IC50 [2]: 8.7 µM
- IC50 [3]: 0.6 µM
- IC50 [4]: > 10 µM
- IC50 [5]: 5.5 µM
- IC50 [6]: 0.001 µM
- IC50 [7]: 0.001 µM

Structure (SMILES): N#Cc1ccc(-c2cnc3ccc(NCc4ccccc4)nn23)cc1
- IC50 [1]: 3.4 µM
- IC50 [8]: 4.1 µM
- IC50 [9]: 4 µM
- IC50 [2]: 6.4 µM
- IC50 [10]: 3.8 µM
- IC50 [11]: 6.1 µM
- IC50 [3]: 0.3 µM
- IC50 [4]: 9.7 µM
- IC50 [12]: 3.1 µM
- IC50 [5]: 2.2 µM
- IC50 [13]: 5.4 µM
- IC50 [14]: 5.1 µM
- IC50 [15]: 2 µM
- IC50 [16]: 8.6 µM
- IC50 [17]: 0.72 µM
- IC50 [18]: 5.5 µM
- IC50 [19]: 3 µM
- IC50 [20]: 2.5 µM
- IC50 [21]: 4 µM
- IC50 [22]: 3.9 µM
- IC50 [23]: 5.9 µM
- IC50 [24]: 6.4 µM
- IC50 [25]: 2 µM
- IC50 [6]: 0.27 µM
- IC50 [7]: 0.1 µM
- IC50 [26]: 0.85 µM

Structure (SMILES): OC1CCN(c2cc(-c3cnc4ccc(N5CCC[C@@H]5c5cccc(F)c5)nn34)ccn2)CC1
- IC50 [27]: 0.003 µM
- IC50 [1]: 5.3 µM
- IC50 [8]: 5 µM
- IC50 [9]: 7.9 µM
- IC50 [10]: 5.2 µM
- IC50 [11]: 4.8 µM
- IC50 [28]: 3 µM
- IC50 [3]: 0.21 µM
- IC50 [4]: 4.3 µM
- IC50 [12]: 3.9 µM
- IC50 [29]: 4.6 µM
- IC50 [5]: 7 µM
- IC50 [13]: 5.1 µM
- IC50 [15]: 5.2 µM
- IC50 [30]: 4.9 µM
- IC50 [17]: 4.3 µM
- IC50 [19]: 5.3 µM
- IC50 [22]: 5 µM
- IC50 [31]: 5 µM
- IC50 [23]: 4.4 µM
- IC50 [25]: 4.6 µM
- IC50 [32]: 0.01 µM
- IC50 [6]: 0.004 µM
- IC50 [7]: 0.002 µM
- IC50 [26]: 0.004 µM

Structure (SMILES): O=C(O)CN1CCN(c2cc(-c3cnc4ccc(N5CCC[C@@H]5c5cccc(F)c5)nn34)ccn2)CC1
- IC50 [27]: 0.001 µM
- IC50 [1]: 2.5 µM
- IC50 [8]: 1 µM
- IC50 [9]: 4.4 µM
- IC50 [10]: 2.4 µM
- IC50 [28]: 1.2 µM
- IC50 [3]: 0.06 µM
- IC50 [33]: 3.7 µM
- IC50 [12]: 2.2 µM
- IC50 [29]: 2.5 µM
- IC50 [5]: 0.79 µM
- IC50 [14]: 4.3 µM
- IC50 [15]: 3 µM
- IC50 [30]: 3.4 µM
- IC50 [16]: 5.3 µM
- IC50 [17]: 3.3 µM
- IC50 [18]: 4.3 µM
- IC50 [20]: 6.2 µM
- IC50 [21]: 5.1 µM
- IC50 [31]: 5.2 µM
- IC50 [23]: 5.3 µM
- IC50 [24]: 5.2 µM
- IC50 [25]: 2.2 µM
- IC50 [32]: 0.001 µM
- IC50 [6]: 0.001 µM
- IC50 [7]: < 0.001 µM
- IC50 [26]: 0.001 µM

Structure (SMILES): N#Cc1ccc(-c2cnc3ccc(N4CCCC4c4cccc(F)c4)nn23)cc1 (centres undefined)
- IC50 [6]: 0.029 µM

Structure (SMILES): N#Cc1ccc(-c2cnc3ccc(N4CCC[C@H]4c4cccc(F)c4)nn23)cc1
- IC50 [6]: 1.97 µM

Structure (SMILES): N#Cc1ccc(-c2cnc3ccc(N4CCC[C@@H]4c4cccc(F)c4)nn23)cc1
- IC50 [6]: 0.011 µM

Structure (SMILES): NS(=O)(=O)c1ccc(-c2cnc3ccc(NCc4cccc(F)c4)nn23)cc1
- IC50 [6]: 0.013 µM
- IC50 [26]: 0.027 µM

Structure (SMILES): CN(Cc1ccccc1)c1ccc2ncc(-c3ccc(C#N)cc3)n2n1
- IC50 [6]: 0.13 µM
- IC50 [26]: 0.52 µM

Structure (SMILES): N#Cc1ccc(-c2cnc3ccc(N4CCCCC4c4cccc(F)c4)nn23)cc1 (centres undefined)
- IC50 [6]: 0.05 µM

Structure (SMILES): N#Cc1ccc(-c2cnc3ccc(NCc4cccc(F)c4)nn23)cc1
- IC50 [6]: 0.021 µM
- IC50 [26]: 0.05 µM

Structure (SMILES): COc1ccccc1CNc1ccc2ncc(-c3ccc(C#N)cc3)n2n1
- IC50 [6]: 0.12 µM
- IC50 [26]: 0.17 µM

Structure (SMILES): OCc1ccc(-c2cnc3ccc(NCc4cccc(F)c4)nn23)cc1
- IC50 [6]: 0.027 µM
- IC50 [26]: 0.076 µM

Structure (SMILES): O=C(Nc1ccc(-c2cnc3ccc(NCc4cccc(F)c4)nn23)cc1)C1CCOCC1
- IC50 [6]: 0.007 µM
- IC50 [26]: 0.006 µM

Structure (SMILES): N#Cc1cccc(-c2cnc3ccc(NCc4ccccc4)nn23)c1
- IC50 [6]: 0.2 µM
- IC50 [26]: 0.74 µM

Structure (SMILES): OC1CCN(c2cccc(-c3cnc4ccc(N5CCC[C@@H]5c5cccc(F)c5)nn34)n2)CC1
- IC50 [6]: 0.004 µM
